Here are results for four molecules from PubChem BioAssay AID1259407 (Chemical Carcinogenesis Research Information System (CCRIS), 2018).

This data set deals with CCRIS mutagenicity, Ames/micronucleus/aberration tests. In words: CCRIS mutagenicity studies.

Active and inactive are the calls of the source. No rule for the calls is given here.

In the case of `O=C(O[C@H]1Cc2c(O)cc(O)cc2O[C@H]1c1ccc(O)c(O)c1)c1cc(O)c(O)c(O)c1`, the mutagenic call is, setting by setting: (Test System: Ames Salmonella typhimurium, Strain/Indicator: TA102, Metabolic Activation: None, Method: Preincubation) “inactive; negative”; (Test System: Ames Salmonella typhimurium, Strain/Indicator: TA102, Metabolic Activation: Rat, Liver, S-9, Aroclor 1254 in 0.154 M KCl, Method: Preincubation) “inactive; negative”.

Consider `COc1cc(C[C@H]2COC(=O)[C@@H]2Cc2ccc(O)c(OC)c2)ccc1O`, for which the mutagenic call is, setting by setting: (Test System: CHINESE HAMSTER V79 CELLS, Strain/Indicator: V79 CELLS (HPRT)/6-THIOGUANINE, Metabolic Activation: NONE, Method: SUSPENSION/PLATE) “inactive; negative”; (Test System: CHINESE HAMSTER V-79, Strain/Indicator: V-79(HPRT)/THIOGUANINE, Metabolic Activation: NONE) “inactive; negative”.

As to `Cc1cc(C)c(N)c(C)c1N`, the mutagenic call was “inactive; negative” (Test System: AMES SALMONELLA TYPHIMURIUM, Strain/Indicator: TA97, Metabolic Activation: NONE, Method: STANDARD PLATE); “active; positive” (Test System: AMES SALMONELLA TYPHIMURIUM, Strain/Indicator: TA97, Metabolic Activation: RAT, LIVER, S-9, Method: STANDARD PLATE); “inactive; negative” (Test System: AMES SALMONELLA TYPHIMURIUM, Strain/Indicator: TA98, Metabolic Activation: NONE, Method: STANDARD PLATE); “active; positive” (Test System: AMES SALMONELLA TYPHIMURIUM, Strain/Indicator: TA98, Metabolic Activation: RAT, LIVER, S-9, Method: STANDARD PLATE); “active; positive” (Test System: AMES SALMONELLA TYPHIMURIUM, Strain/Indicator: TA100, Metabolic Activation: NONE, Method: STANDARD PLATE); “active; positive” (Test System: AMES SALMONELLA TYPHIMURIUM, Strain/Indicator: TA100, Metabolic Activation: RAT, LIVER, S-9, Method: STANDARD PLATE). Moreover, the mutagenic call (Test System: AMES SALMONELLA TYPHIMURIUM, Strain/Indicator: TA1535, Metabolic Activation: NONE, Method: STANDARD PLATE) is “active; positive” and the mutagenic call (Test System: AMES SALMONELLA TYPHIMURIUM, Strain/Indicator: TA1535, Metabolic Activation: RAT, LIVER, S-9, Method: STANDARD PLATE) is “active; positive”.

With `CC(=O)CC(=O)Nc1ccccc1C`, the mutagenic call runs as follows: (Test System: AMES SALMONELLA TYPHIMURIUM, Strain/Indicator: TA102, Metabolic Activation: NONE, Method: STANDARD PLATE) “inactive; negative”; (Test System: AMES SALMONELLA TYPHIMURIUM, Strain/Indicator: TA2638, Metabolic Activation: NONE, Method: STANDARD PLATE) “inactive; negative”; (Test System: Ames Salmonella typhimurium, Strain/Indicator: TA98, Metabolic Activation: None, Method: Preincubation) “inactive; negative”; (Test System: Ames Salmonella typhimurium, Strain/Indicator: TA98, Metabolic Activation: Rat, Liver, S9, Sodium phenobarbital and 5,6-benzoflavone (10%), Method: Preincubation) “inactive; negative”; (Test System: Ames Salmonella typhimurium, Strain/Indicator: TA100, Metabolic Activation: None, Method: Preincubation) “inactive; negative”; (Test System: Ames Salmonella typhimurium, Strain/Indicator: TA100, Metabolic Activation: Rat, Liver, S9, Sodium phenobarbital and 5,6-benzoflavone (10%), Method: Preincubation) “inactive; negative”. For the same molecule, the mutagenic call runs as follows: (Test System: Ames Salmonella typhimurium, Strain/Indicator: TA1535, Metabolic Activation: None, Method: Preincubation) “inactive; negative”; (Test System: Ames Salmonella typhimurium, Strain/Indicator: TA1535, Metabolic Activation: Rat, Liver, S9, Sodium phenobarbital and 5,6-benzoflavone (10%), Method: Preincubation) “inactive; negative”; (Test System: Ames Salmonella typhimurium, Strain/Indicator: TA1537, Metabolic Activation: None, Method: Preincubation) “inactive; negative”; (Test System: Ames Salmonella typhimurium, Strain/Indicator: TA1537, Metabolic Activation: Rat, Liver, S9, Sodium phenobarbital and 5,6-benzoflavone (10%), Method: Preincubation) “inactive; negative”; (Test System: E. COLI, Strain/Indicator: WP2 (PKM101), Metabolic Activation: NONE, Method: STANDARD PLATE) “inactive; negative”; (Test System: E. COLI, Strain/Indicator: WP2 UVRA (PKM101), Metabolic Activation: NONE, Method: STANDARD PLATE) “inactive; negative”. For the same molecule, the mutagenic call by setting is: (Test System: E. coli, Strain/Indicator: WP2uvrA/pKM101, Metabolic Activation: None, Method: Preincubation) “inactive; negative”; (Test System: E. coli, Strain/Indicator: WP2uvrA/pKM101, Metabolic Activation: Rat, Liver, S9, Sodium phenobarbital and 5,6-benzoflavone (10%), Method: Preincubation) “inactive; negative”.
